From patent US20050079152A1, “Methods of elicit, enhance and sustain immune responses against MHC class I-restricted epitopes, for prophylactic or therapeutic purposes” (priority 2003, published 2005)

System: SSX241-49 epitope specific T cells
Assay: SSX2 tetramer staining in immunized mice
Format: in vivo
Conditions: for SSX2 antigen specificity, % of the available CD8 T cells (tetramer): entrained with pCBP plasmid, amplified with peptide analogue; for cross-reactivity with T cells specific for the SSX241-49 epitope: mouse, in vivo
Excerpt: These analogues are cross-reactive with T cells specific for the SSX241-49 epitope. These examples illustrate that the entrain-and-amplify protocol can elicit a SSX2 antigen specificity that approaches 80% of the available CD8 T cells. The pCBP plasmid and principles of its design are disclosed in U.S. patent application Ser. No. 10/292,413 (Pub. No. 20030228634 A1) entitled EXPRESSION VECTORS ENCODING EPITOPES OF TARGET-ASSOCIATED ANTIGENS AND METHODS FOR THEIR DESIGN, which is hereby incorporated by reference in its entirety. Additional methodology, compositions, peptides, and peptide analogues are disclosed in U.S. Provisional Application No. ______, (Attorney Docket MANNK.038PR), filed on the same date as the instant application, entitled “SSX-2 PEPTIDE ANALOGS;” which is incorporated herein by reference in its entirety. Further methodology, compositions, peptides., and peptide analogues are disclosed in U.S. Provisional Application No. ______, (Attorney Docket MANNK.039PR), filed on the same date as the instant application, entitled “NY-ESO PEPTIDE ANALOGS;” which is incorporated herein by reference in its entirety.

Substance	SSX2 antigen specificity, % of the available CD8 T cells (tetramer) [%]	cross-reactivity with T cells specific for the SSX241-49 epitope
K41Y: K41Y peptide analogue of SSX2-derived epitope KASEKIFYV (SSX2 41-49) (YASEKIFYV)	~80	cross-reactive
SSX241-49 K41F: K41F peptide analogue of SSX2-derived epitope KASEKIFYV (SSX2 41-49) (FASEKIFYV)	~80	cross-reactive
